Laboratory results reported in patent publication US20040039042A1, “Method of transdermal drug delivery” (priority 2002, published 2004).

Assays:
[1] = Application of Carafate® to root canal wounds or dry sockets in dental patients; assay type: in vivo, human; details: applied to root canal wounds or dry sockets
Source text: Wounds in the mouth are especially prone to infection because of the dark, moist environment, the availability of energy sources from the food that is eaten, and the large numbers of microbes in the mouth. After a root canal or removal of a tooth, a patient is especially prone to infection since the open wound is an idea location for bacteria to settle, and because such a wound is hard to clean.

[2] = cited from earlier work
[3] = Powdered drug mixed with Ocean® and rubbed into the skin over arthritic joints of patients; assay type: in vivo, human; details: for side effects normally encountered when taking the drug: patients unable to continue the drugs because of GI toxicity, transdermal application in Ocean®
Source text: The present invention is a method for delivering drugs transdermally, especially insoluble drugs. The powdered form of a drug, such as that contained in the capsules of Vioxx® and Celebrex®, was mixed with Ocean® to form a mixture. The mixture was then rubbed into the skin at the needed location, for example, an arthritic joint, by volunteer subjects suffering from arthritis in different joints. The Vioxx® or Celebrex® suspension in Ocean® then penetrated the outer layer of the skin, traveled through the stratum corneum, dermis, and hypodermis, and entered the target tissue. […] Therefore, the present invention provides a method of delivery for NSAIDs, such as Vioxx® and Celebrex®, that can inhibit COX-2 at the inflammation site, without ever entering the GI tract, relieving the patient of any GI toxicity that may be caused by the drug.
In summary, the method of this patent for drug delivery has been tried by a few patients with severe arthritis. These patients were unable to continue using either Vioxx® or Celebrex® because of the severe GI toxicity those drugs caused. The patients opened the capsules of the drugs, mixed the powdered drug with Ocean®, and applied the solution to the skin of the arthritic area.

Molecule: α-D-glucopyranoside, β-D-frucofuranosyl-, octakis-(hydrogen sulfate), aluminum complex [Carafate®]
- infection of the wound area ([1]; a number of dental patients): inhibits infection
- healing process ([1]; dental patients): hastens the healing process
- pain and swelling in wounds ([1]; dental patients): reduce pain and swelling

Molecule: CS(=O)(=O)c1ccc(C2=C(c3ccccc3)C(=O)OC2)cc1 [Vioxx®, 4-[4-(methyl-sulfonyl)phenyl]-3-phenyl-2(5H)-furanone]
- solubility in acetone ([2]; acetone): sparingly soluble
- solubility in ethanol ([2]; ethanol): very slightly soluble
- solubility in isopropyl acetate ([2]; isopropyl acetate): slightly soluble
- solubility in methanol ([2]; methanol): slightly soluble
- solubility in octanol ([2]; octanol): practically insoluble
- solubility in water ([2]; water): insoluble
- side effects normally encountered when taking the drug [3]: without the side effects
- relief from arthritis ([3]; patients with severe arthritis, powdered drug from capsules mixed with Ocean®, applied to skin of the arthritic area): relief from their arthritis
- time after application until pain and symptoms are reduced ([3]; suspension in Ocean® rubbed into the skin closest to the affected arthritic joint, volunteer subjects): Within minutes

Molecule: Cc1ccc(-c2cc(C(F)(F)F)nn2-c2ccc(S(N)(=O)=O)cc2)cc1 [Celebrex®, 4-[5-(4-methylphenyl)-3-(triflouromethyl)-1 H-pyrazol-1-yl] benzenesulfonamide]
- solubility in aqueous media ([2]; aqueous media): low solubility
- side effects normally encountered when taking the drug [3]: without the side effects
